Legend:
Histamine H3 receptor [1] = biological target: T1, Histamine H3 receptor (Rattus norvegicus, UniProt Q9QYN8); assay: Binding potency was determined by displacement of [3H]N-alpha-methyl histamine from histamine H3 receptor of rat cortical membranes; type: cell membranes, Membrane
Histamine H3 receptor [2] = biological target: Histamine H3 receptor (Homo sapiens, UniProt Q9Y5N1); assay: Binding potency was determined by displacement of [3H]N-alpha-methyl histamine from cloned human histamine H3 receptor expressed in C6 cells; type: cell-based
Histamine H3 receptor [3] = biological target: T1, Histamine H3 receptor; assay: pBinding potency by displacement of [3H]N-alpha-methyl histamine from histamine H3 receptor of rat cortical membranes; type: cell membranes, Membrane
Histamine H3 receptor [4] = biological target: T1, Histamine H3 receptor; assay: Binding potency by displacement of [3H]N-alpha-methyl histamine from histamine H3 receptor of rat cortical membranes; type: cell membranes, Membrane

Histamine H3 receptor (Homo sapiens, UniProt Q9Y5N1), sequence (Q9Y5N1 whole entry): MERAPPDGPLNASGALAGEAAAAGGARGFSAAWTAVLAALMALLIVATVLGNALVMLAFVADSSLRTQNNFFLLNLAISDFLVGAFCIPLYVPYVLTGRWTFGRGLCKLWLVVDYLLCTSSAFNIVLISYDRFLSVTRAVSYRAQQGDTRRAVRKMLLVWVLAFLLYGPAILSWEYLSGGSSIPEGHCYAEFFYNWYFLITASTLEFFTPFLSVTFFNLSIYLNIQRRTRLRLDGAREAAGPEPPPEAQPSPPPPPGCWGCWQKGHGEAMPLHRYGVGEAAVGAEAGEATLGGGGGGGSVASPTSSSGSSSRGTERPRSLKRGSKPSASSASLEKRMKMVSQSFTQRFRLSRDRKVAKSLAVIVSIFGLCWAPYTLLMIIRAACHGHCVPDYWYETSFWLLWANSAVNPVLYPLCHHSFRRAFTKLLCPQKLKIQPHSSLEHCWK
T1 sequence (Q9QYN8 whole entry): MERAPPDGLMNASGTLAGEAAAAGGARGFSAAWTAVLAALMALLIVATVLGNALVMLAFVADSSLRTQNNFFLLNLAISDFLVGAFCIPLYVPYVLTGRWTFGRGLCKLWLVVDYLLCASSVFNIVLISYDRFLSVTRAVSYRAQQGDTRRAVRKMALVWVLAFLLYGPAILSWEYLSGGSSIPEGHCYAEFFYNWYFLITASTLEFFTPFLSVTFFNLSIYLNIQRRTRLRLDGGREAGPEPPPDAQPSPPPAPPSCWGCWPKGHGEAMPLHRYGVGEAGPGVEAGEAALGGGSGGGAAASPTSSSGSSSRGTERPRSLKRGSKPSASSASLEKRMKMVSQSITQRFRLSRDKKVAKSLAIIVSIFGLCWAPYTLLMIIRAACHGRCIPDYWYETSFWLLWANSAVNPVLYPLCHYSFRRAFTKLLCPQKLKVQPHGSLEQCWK

Compound	Ki (Histamine H3 receptor [1]) [nM]	Ki (Histamine H3 receptor [2]) [nM]	Ki (Histamine H3 receptor [3]) [nM]	Ki (Histamine H3 receptor [4]) [nM]
CN(C)[C@@H]1CCN(CCc2cc3cc(-c4ccc(C#N)cc4)ccc3o2)C1	63	16		
O=C(c1ccc(-c2ccc3oc(CCN4CCCCC4)cc3c2)nc1)N1CCOCC1	49	12		
N#Cc1ccc(-c2ccc3oc(CCN4CCCCC4)cc3c2)cc1		8.8		
C[C@@H]1CCC[C@H](C)N1CCc1cc2cc(-c3ccc(C(=O)N4CCOCC4)cc3)ccc2o1	6.6	1.2		
C[C@@H]1CC[C@@H](C)N1CCc1cc2cc(-c3ccc(C#N)cc3)ccc2o1	42	5.1		
N#Cc1ccc(-c2ccc3oc(CCN4CCC[C@@H]4CC(=O)O)cc3c2)cc1	1600	320		
O=C(c1ccc(-c2ccc3oc(CCN4CCCC4)cc3c2)nc1)N1CCOCC1	29	3.9		
O=C(c1ccc(-c2ccc3oc(CCN4CCC[C@H]4CO)cc3c2)cc1)N1CCOCC1	6.9	1.9		
O=C(c1ccc(-c2ccc3oc(CCN4CCOCC4)cc3c2)cc1)N1CCOCC1	160	45		
N#Cc1ccc(-c2ccc3oc(CCN4CC=CCC4)cc3c2)cc1	50	10		
O=C(c1ccc(-c2ccc3oc(CCN4CCC(O)C4)cc3c2)nc1)N1CCOCC1 (stereo unspecified)		12		
N#Cc1ccc(-c2ccc3oc(CCN4CCC[C@H]4CO)cc3c2)cc1		2.2		
N#Cc1ccc(-c2ccc3oc(CCN4CCC[C@@H]4CO)cc3c2)cc1		18		
O=C(c1ccc(-c2ccc3oc(CCN4CCOCC4)cc3c2)nc1)N1CCOCC1	260			
O=C(c1ccc(-c2ccc3oc(CCN4CCC[C@@H]4CO)cc3c2)nc1)N1CCOCC1	110	36		
CC1CCN(CCc2cc3cc(-c4ccc(C(=O)N5CCOCC5)cc4)ccc3o2)CC1		17		
C[C@@H]1CCCN1CCc1cc2cc(-c3ccc(C(=O)N4CCOCC4)cc3)ccc2o1	1.95	0.7	2	
O=C(c1ccc(-c2ccc3oc(CCN4CCCCC4)cc3c2)cc1)N1CCOCC1	6.2	2.3		

Compound	Ki (Histamine H3 receptor [1]) [nM]	Ki (Histamine H3 receptor [2]) [nM]	Ki (Histamine H3 receptor [3]) [nM]	Ki (Histamine H3 receptor [4]) [nM]
C[C@@H]1CC[C@@H](C)N1CCc1cc2cc(-c3ccc(C(=O)N4CCOCC4)cc3)ccc2o1		2.2		
CC1CCCCN1CCc1cc2cc(-c3ccc(C(=O)N4CCOCC4)cc3)ccc2o1 (stereo unspecified)	14	3		
CC1CCN(CCc2cc3cc(-c4ccc(C#N)cc4)ccc3o2)CC1	16	15		
CC1CCCCN1CCc1cc2cc(-c3ccc(C#N)cc3)ccc2o1 (stereo unspecified)		5.8		
O=C(c1ccc(-c2ccc3oc(CCN4CCCCCC4)cc3c2)cc1)N1CCOCC1		3.5		
CC1CCN(CCc2cc3cc(-c4ccc(C(=O)N5CCOCC5)cn4)ccc3o2)CC1	151	87		
CN(C)[C@H]1CCN(CCc2cc3cc(-c4ccc(C#N)cc4)ccc3o2)C1	140	49		
C[C@@H]1CCCN1CCc1cc2cc(-c3ccc(C(=O)N4CCOCC4)cn3)ccc2o1	1.6	0.55		
O=C(c1ccc(-c2ccc3oc(CCN4CCCCCC4)cc3c2)nc1)N1CCOCC1	33	16		
O=C(c1ccc(-c2ccc3oc(CCN4CC=CCC4)cc3c2)cc1)N1CCOCC1	17	5.9		
C[C@@H]1CC[C@@H](C)N1CCc1cc2cc(-c3ccc(C(=O)N4CCOCC4)cn3)ccc2o1	26	5.9		
N#Cc1ccc(-c2ccc3oc(CCN4CCCCCC4)cc3c2)cc1		7.8		
C[C@@H]1CCC[C@H](C)N1CCc1cc2cc(-c3ccc(C(=O)N4CCOCC4)cn3)ccc2o1	44.7	5.6		45
N#Cc1ccc(-c2ccc3oc(CCn4ccnc4)cc3c2)cc1		600		
C[C@@H]1CCC[C@H](C)N1CCc1cc2cc(-c3ccc(C#N)cc3)ccc2o1	22	2.4		
N#Cc1ccc(-c2ccc3oc(CCN4CCC(O)C4)cc3c2)cc1 (stereo unspecified)	95	8.8		
O=C(c1ccc(-c2ccc3oc(CCN4CC[C@@H](O)C4)cc3c2)cc1)N1CCOCC1	35	6.2		

Reference: ChEMBL document CHEMBL1147428, “A new class of potent non-imidazole H(3) antagonists: 2-aminoethylbenzofurans” (Bioorg Med Chem Lett, 2004)
